Experimental data reported in US8299085B2, “Quinazoline derivatives” (Novartis AG, priority 2004, dated 2012).

Key:
[1] = test system: patients with diabetic neuropathy; test: Clinical study, chronic pain in patients with diabetic neuropathy; assay type: in vivo, human; conditions: 2400 mg/day, Maintenance and Follow-up Periods, statistically significant
Procedure: Patients are randomized to receive 2400 mg/day of the compound or placebo in a 1:1 ratio.
The study consists of a Pre-randomization Phase (1 week) and a Double-blind Phase (5 weeks). The double-blind Phase consists of three periods: a one week Titration Period, a three-week Maintenance Period and a one-week Follow-up Period.
During the 1-week Pre-randomization Phase, the eligibility of the patients is evaluated. Patients meeting all inclusion/exclusion criteria are randomized to either the compound or placebo in the Double-blind Phase. During the 1-week Titration Period, study medication is up-titrated from 800 mg/day (given b.i.d.) to 2400 mg/day (given b.i.d.). Patients who complete the 1-week Titration Period then enter the 3-week Maintenance Period. Patients who complete the 3-week Maintenance period or prematurely discontinue double-blind treatment then enter the 1-week Follow-up Period. Study medication is completely withdrawn on entry into the Follow-up Period. During the Double-blind Phase, serial efficacy and safety assessments are obtained. […]
The SF-MPQ total pain score at the end of the Maintenance Period is analyzed using an analysis of covariance model adjusting for the effect of treatment on post-treatment scores by using the baseline SF-MPQ total pain score as a covariate. Average weekly pain severity is analyzed using an analysis of covariance model with repeated measures using the treatment week and the mean pain severity rating during the Pre-randomization Phase as covariates. Usage of rescue medication during the Double-blind Phase is analyzed using the Cochran-Mantel-Haenszel test controlling for center. The mean pain severity rating during the Follow-up Period (rebound pain) is analyzed using an analysis of covariance model adjusting for the effect of treatment on the mean pain severity rating of the Follow-up Period with the mean pain severity rating during the Prerandomization Phase as a covariate.

| melting point | SMILES | pain severity ratings relative to placebo [1] |
| --- | --- | --- |
| 225 to 230 °C | CS(=O)(=O)Nn1c(=O)[nH]c2cc(C(F)(F)F)c(-n3cnc(CO)c3)cc2c1=O [Example 93, N-[6-(4-Hydroxymethyl-imidazol-1-yl)-2,4-dioxo-7-trifluoromethyl-1,4-dihydro-2H-quinazolin-3-yl]-methanesulfonamide] | – |
| 257 to 260 °C | CNC(=O)c1ncn(-c2cc3c(=O)n(NS(C)(=O)=O)c(=O)[nH]c3cc2C(F)(F)F)n1 [Example 72, 1-(3-Methanesulfonylamino-2,4-dioxo-7-trifluoromethyl-1,2,3,4-tetrahydro-quinazolin-6-yl)-1H-[1,2,4]triazole-3-carboxylic acid methylamide] | – |
| 285 to 301 °C (dec.) | CS(=O)(=O)Nn1c(=O)[nH]c2cc(C(F)(F)F)c(-n3ccnc3)cc2c1=O [Example 73, N-(6-Imidazol-1-yl-2,4-dioxo-7-trifluoromethyl-1,4-dihydro-2H-quinazolin-3-yl)-methanesulfonamide] | – |
| 144 to 147 °C | CS(=O)(=O)Nn1c(=O)[nH]c2cc(C(F)(F)F)c(-n3cnc(C(F)(F)F)c3)cc2c1=O [Example 96, N-[6-(4-Trifluoromethyl-imidazol-1-yl)-2,4-dioxo-7-trifluoromethyl-1,4-dihydro-2H-quinazolin-3-yl]-methanesulfonamide] | – |
| – | CN(CCO)c1cc2c(=O)n(NS(C)(=O)=O)c(=O)[nH]c2cc1C(F)(F)F [Example 83, N-{6-[(2-Hydroxy-ethyl)-methyl-amino]-2,4-dioxo-7-trifluoromethyl-1,4-dihydro-2H-quinazolin-3-yl}-methanesulfonamide] | decrease pain severity ratings relative to placebo |
| 240 to 246 °C | CS(=O)(=O)Nn1c(=O)[nH]c2cc(C(F)(F)F)c(NCCO)cc2c1=O [Example 82, N-[6-(2-Hydroxy-ethylamino)-2,4-dioxo-7-trifluoromethyl-1,4-dihydro-2H-quinazolin-3-yl]-methanesulfonamide] | – |
| 254 to 272 °C | CN(C)c1cc2c(=O)n(NS(C)(=O)=O)c(=O)[nH]c2cc1C(F)(F)F [Example 81, N-(6-Dimethylamino-2,4-dioxo-7-trifluoromethyl-1,4-dihydro-2H-quinazolin-3-yl)-methanesulfonamide] | – |
| > 280 °C | COc1cc2c(=O)n(NS(C)(=O)=O)c(=O)[nH]c2cc1[N+](=O)[O-] [Example 15, N-(6-Methoxy-7-nitro-2,4-dioxo-1,4-dihydro-2H-quinazolin-3-yl)-methanesulfonamide] | – |
| 252 to 257 °C | COCc1ccc(-c2cn(-c3cc4c(=O)n(NS(C)(=O)=O)c(=O)[nH]c4cc3C(F)(F)F)cn2)cc1 [Example 85, N-{6-[4-(4-Methoxymethyl-phenyl)-imidazol-1-yl]-2,4-dioxo-7-trifluoromethyl-1,4-dihydro-2H-quinazolin-3-yl}-methanesulfonamide] | – |
| 185 to 195 °C | CCS(=O)(=O)Nn1c(=O)[nH]c2cc(C(F)(F)F)c(-n3cnnc3)cc2c1=O [Example 70, Ethanesulfonic acid (2,4-dioxo-6-[1,2,4]triazol-4-yl-7-trifluoromethyl-1,4-dihydro-2H-quinazolin-3-yl)-amide] | – |
| 253 to 262 °C | CS(=O)(=O)Nn1c(=O)[nH]c2cc(C(F)(F)F)c(N3CCC4(CC3)OCCO4)cc2c1=O [Example 77, N-[6-(1,4-Dioxa-8-aza-spiro[4.5]dec-8-yl)-2,4-dioxo-7-trifluoromethyl-1,4-dihydro-2H-quinazolin-3-yl]-methanesulfonamide] | – |
| 232.4 to 240.2 °C | COC(=O)Nc1cc2c(=O)n(NS(C)(=O)=O)c(=O)[nH]c2cc1C(F)(F)F [Example 101, (3-Methanesulfonylamino-2,4-dioxo-7-trifluoromethyl-1,2,3,4-tetrahydro-quinazolin-6-yl)carbamic acid methyl ester] | – |
| – | CS(=O)(=O)Nn1c(=O)[nH]c2cc(C(F)(F)F)c(N3CCCOCC3)cc2c1=O [Example 75, N-(6-[1,4]Oxazepan-4-yl-2,4-dioxo-7-trifluoromethyl-1,4-dihydro-2H-quinazolin-3-yl)-methanesulfonamide] | decrease pain severity ratings relative to placebo |
| 249 to 261 °C (dec.) | CS(=O)(=O)Nn1c(=O)[nH]c2cc(C(F)(F)F)c(N3CCC(F)(F)CC3)cc2c1=O [Example 76, N-[6-(4,4-Difluoro-piperidin-1-yl)-2,4-dioxo-7-trifluoromethyl-1,4-dihydro-2H-quinazolin-3-yl]-methanesulfonamide] | – |
| 245 to 260 °C (dec.) | CS(=O)(=O)Nn1c(=O)[nH]c2cc(C(F)(F)F)c(N3CCSCC3)cc2c1=O [Example 74, N-(2,4-Dioxo-6-thiomorpholin-4-yl-7-trifluoromethyl-1,4-dihydro-2H-quinazolin-3-yl)-methanesulfonamide] | – |
| 293 to 294 °C | COc1ccc(-c2cn(-c3cc4c(=O)n(NS(C)(=O)=O)c(=O)[nH]c4cc3C(F)(F)F)cn2)cc1 [Example 84, N-{6-[4-(4-Methoxy-phenyl)-imidazol-1-yl]-2,4-dioxo-7-trifluoromethyl-1,4-dihydro-2H-quinazolin-3-yl}-methanesulfonamide] | – |
| 110 °C (dec.) | CS(=O)(=O)Nn1c(=O)[nH]c2cc([N+](=O)[O-])c(NCC(O)c3cccs3)cc2c1=O (centres unmarked) [Example 6, N-[6-(2-Hydroxy-2-thiophen-2-yl-ethylamino)-7-nitro-2,4-dioxo-1,4-dihydro-2H-quinazolin-3-yl]-methanesulfonamide] | – |
| 229 to 233 °C | CS(=O)(=O)Nn1c(=O)[nH]c2cc(C(F)(F)F)c(-n3cnc(Br)c3)cc2c1=O [Example 95, N-[6-(4-Bromo-imidazol-1-yl)-2,4-dioxo-7-trifluoromethyl-1,4-dihydro-2H-quinazolin-3-yl]-methanesulfonamide] | – |
| 284 to 286 °C | CN(C)C(=O)c1cn(-c2cc3c(=O)n(NS(C)(=O)=O)c(=O)[nH]c3cc2C(F)(F)F)cn1 [Example 90, 1-(3-Methanesulfonylamino-2,4-dioxo-7-trifluoromethyl-1,2,3,4-tetrahydro-quinazolin-6-yl)-1H-imidazole-4-carboxylic acid dimethylamide] | – |
| 238 to 242 °C | CS(=O)(=O)Nn1c(=O)[nH]c2cc(C(F)(F)F)c(N3CCC(=O)CC3)cc2c1=O [Example 78, N-[2,4-Dioxo-6-(4-oxo-piperidin-1-yl)-7-trifluoromethyl-1,4-dihydro-2H-quinazolin-3-yl]-methanesulfonamide] | – |
| 287 to 288 °C | COC(=O)c1cn(-c2cc3c(=O)n(NS(C)(=O)=O)c(=O)[nH]c3cc2C(F)(F)F)cn1 [Example 88, 1-(3-methanesulfonylamino-2,4-dioxo-7-trifluoromethyl-1,2,3,4-tetrahydro-quinazolin-6-yl)-1H-imidazole-4-carboxylic acid methyl ester] | – |
| 292 to 295 °C | CNC(=O)c1cn(-c2cc3c(=O)n(NS(C)(=O)=O)c(=O)[nH]c3cc2C(F)(F)F)cn1 [Example 91, 1-(3-Methanesulfonylamino-2,4-dioxo-7-trifluoromethyl-1,2,3,4-tetrahydro-quinazolin-6-yl)-1H-imidazole-4-carboxylic acid methylamide] | – |
| 194 to 196 °C | CS(=O)(=O)Nn1c(=O)[nH]c2cc(C(F)(F)F)c(Oc3cccnc3)cc2c1=O [Example 80, N-[2,4-Dioxo-6-(pyridin-3-yloxy)-7-trifluoromethyl-1,4-dihydro-2H-quinazolin-3-yl]-methanesulfonamide] | – |
| > 300 °C | CS(=O)(=O)Nn1c(=O)[nH]c2cc([N+](=O)[O-])c(-n3cnc(CO)c3)cc2c1=O [Example 2, N-[6-(4-Hydroxymethyl-imidazol-1-yl)-7-nitro-2,4-dioxo-1,4-dihydro-2H-quinazolin-3-yl]-methanesulfonamide] | – |
| 266 to 283 °C | CS(=O)(=O)Nn1c(=O)[nH]c2cc(C(F)(F)F)c(N3CCC3)cc2c1=O [Example 79, N-(6-Azetidin-1-yl-2,4-dioxo-7-trifluoromethyl-1,4-dihydro-2H-quinazolin-3-yl)-methanesulfonamide] | – |
| 267 to 270 °C | CCOC(=O)c1ncn(-c2cc3c(=O)n(NS(C)(=O)=O)c(=O)[nH]c3cc2C(F)(F)F)n1 [Example 71, 1-(3-Methanesulfonylamino-2,4-dioxo-7-trifluoromethyl-1,2,3,4-tetrahydro-quinazolin-6-yl)-1H-[1,2,4]triazole-3-carboxylic acid ethyl ester] | – |
